PMC11884657, “Ru(II)-Fenamic-Based Complexes as Promising Human Ovarian Antitumor Agents: DNA Interaction, Cellular Uptake, and Three-Dimensional Spheroid Models” (Inorganic Chemistry, 2025)
Where two headings read alike, the source gives them in different places.

Assays:
A549 (lung) cancer cells = test: MTT cytotoxicity assay, A549; conditions: read-out: In Vitro Cytotoxicity IC50, A549
Description: (§1) The cell lines were grown in culture bottles and incubated at a CO2 concentration of 5% and 37 °C.
(§2) Cell viability was investigated via the MTT [3-(4,5-dimethylthiazol-2-yl)-2,5-diphenyltetrazolium bromide] assay. This method consists of the capacity of enzymes present in living cells, especially in mitochondria, to reduce MTT to formazan, a purple-colored compound. […] For the assays, 1.5 × 10^4 cells/well were seeded in 96-well flat-bottom cell culture plates (KASVI). The plates were incubated for 24 h; then, different concentrations of the complexes were pipetted, and the plates were treated for an additional 48 h. To complete the treatment, 50 μL of MTT (1 mg/mL in PBS) was added to each well, followed by incubation for 3 h. The formazan crystals that formed were solubilized in isopropanol, and the absorbance was read with a microplate reader (BioTek, Epoch) at 540 nm. Cell viability (IC50) was assessed with GraphPad Prism 8.

[1] = tested on: MRC-5 (lung) normal cells; test: MTT cytotoxicity assay, MRC-5; conditions: read-out: In Vitro Cytotoxicity IC50, MRC-5; MTT, 48 h treatment
Description: as §1, §2

[2] = tested on: A2780cis (ovarian cisplatin-resistant) cancer cells; test: MTT cytotoxicity assay, A2780cis; conditions: read-out: In Vitro Cytotoxicity IC50, A2780cis
Description: as §1, §2

[3] = tested on: A2780 (ovarian) cancer cells; test: MTT cytotoxicity assay, A2780; conditions: read-out: In Vitro Cytotoxicity IC50, A2780
Description: as §1, §2

[4] = tested on: MDA-MB-231 (breast) cancer cells; test: MTT cytotoxicity assay, MDA-MB-231; conditions: read-out: In Vitro Cytotoxicity IC50, MDA-MB-231
Description: as §1, §2

A2780 tumor spheroids = test: 3D tumor spheroids; assay type: cell-based, human
Description: In this experiment, the spheroids were monitored for 144 h after treatment with 1 at several concentrations (0.78–12.5 μM). […] As observed, at this concentration there is a decrease in the diameter, followed by stabilization, after treatment for 48 h. […] These findings underscore the necessity to refine in vitro methodologies to better elucidate the potential of novel compounds. Such improvements are crucial for increasing the likelihood of identifying critical insights early in the drug discovery and development process, thereby minimizing errors in subsequent stages. After treatment for 144 h, double staining with both DAPI and PI was performed.
In a 96-well Bioprint Kit [Magnetic 3D Cell Culture Technology (m3D)], the 3D culture experiment was carried out. Initially, to the A2780 cells was added 150 μL of a solution containing nanoparticles (NanoShuttle - PL). The A2780 cells were added to a 96-well repellent culture plate after 24 h. The resulting 1500 cells/well were placed under magnetic drives to form spheroids through the magnetic forces of the magnets. […] The formation of spheroids and their growth were monitored by a Digital Imaging System microscope (CELENA S, Logos Biosystems). Once the spheroids were formed, complex 1 at different concentrations (0.78, 1.56, 3.12, 6.25, and 12.5 μM) was added, and the effect of the compound on the spheroids was monitored for 144 h. […]

A2780 cells = test: Cellular uptake of ruthenium by HR-CS GFAAS; assay type: cell-based, human; conditions: 1 μM complex, 4 h
Description: Due to the higher cytotoxicity of complexes 1 and 2 against the A2780 cell line, experiments were performed to evaluate their cell internalization capacity. These studies are crucial to determine whether the complexes can efficiently penetrate the cell membrane and to correlate their antiproliferative effects with their uptake levels.[59] A2780 cells were exposed to complexes 1 and 2 (1 μM) over a period of 4 h, and the cellular uptake of ruthenium was quantified using graphite furnace atomic absorption spectrometry.
A2780 cancer cells (2 × 10^6 cells/plate) were seeded in Petri dishes. After 24 h, complexes 1 and 2 (1 μM) were added to the cells for 4 h. Subsequently, the RPMI medium was removed, and the cells were washed with phosphate-buffered saline (PBS), trypsinized, and counted. The ruthenium absorbance measurements were conducted with an Analytik Jena ContrAA 700 graphite furnace atomic absorption spectrometer (Jena, Germany), equipped with solid sampling tubes. The absorbance measurements were performed at 349.8945 nm, with the peak volume selected absorbance (PVSA) corresponding to three pixels. The heating program for the graphite furnace, used for the quantitative determination of ruthenium, is depicted in Table S4.[66] The analytical working solution of 50 mg L^–1 Ru was prepared by diluting standard solutions of 1000 mg L^–1 Ru (Specsol, São Paulo, Brazil) and acidifying with 0.5% (v/v) HNO3. To establish the calibration curve, appropriate aliquots of the analytical working solution were added to the atomizer to achieve concentrations of 0.1, 0.3, 0.6, 0.9, 1.2, and 1.5 ng of ruthenium. The cell suspension containing the internalized complexes was diluted with 500 μL of deionized water, acidified with 0.5% (v/v) HNO3, and homogenized using a vortex mixer (IKA model V1). For the determination of Ru by SS HR-CS GFAAS, 10 μL aliquots of the samples were transferred to the platform and introduced automatically into the graphite furnace, in which all measurements were carried out in triplicate.

[5] = tested on: A2780 ovarian cancer cells; test: Morphological assay (bright field, PI, DAPI/Green Plasma); assay type: cell-based, human; conditions: for DAPI and Green Plasma staining / propidium iodide fluorescence intensity: 48 h, 0.5 × IC50, IC50, 2 × IC50; for cell morphology: up to 48 h, mainly at higher concentrations
Description: For morphological analysis, A2780 cancer cells (0.3 × 10^5 cells/well) were added to a 12-well plate in RPMI medium. After 24 h, different concentrations of complexes 1 and 2 were introduced into the cells. Possible morphological changes were evaluated at 0 and 48 h using an inverted optical microscope (NIKON ECLIPSE TS100) coupled with a Motcam 1SP camera, with a 10× objective lens.
Additionally, 1.5 × 10^4 A2780 cells/well were plated in 96-well plates in RPMI medium for the fluorescence morphology experiments. After treatment for 48 h, 100 μL (1 μg mL^–1) of the fluorescent marker PI ([…]) was added. For the morphological assessment using the fluorescent markers DAPI (4′,6-diamidino-2-phenylindole dilactate) and Green Plasma (CellMask), the cells were fixed in methanol and 80 μL (1 μg mL^–1) portions of the markers were added. Images were taken using a CELENA microscope (Logos Biosystems).

A2780 cancer cells = test: Clonogenic survival assay; assay type: cell-based, human; conditions: 0.5 × IC50, 48 h treatment then 7 days
Description: The A2780 cancer cells were used for the clonogenic assay, in which a total of 400 cells/well were seeded in a six-well plate in RPMI medium, and after incubation for 24 h, different concentrations of complexes 1 and 2 were added. The plates containing the complexes were incubated (37 °C and 5% of CO2) for 48 h. The culture medium was replaced with fresh medium, and the system was incubated again for 7 days under the same condition. Thereafter, all culture media were removed from the plate, and the cells were washed with PBS and fixed with a 3:1 methanol/acetic acid mixture. Then the cells were colored with a 0.5% crystal violet solution in water for 30 min. Images were taken, and the colonies counted using ImageJ. The experiment was also carried out in triplicate.

[6] = MTT cytotoxicity assay, MRC-5; conditions: human
Description: as §1, §2

in vitro = conditions: human
Description: as §1, §2

Stability by 31P{1H} NMR = conditions: 48 h
Description: Furthermore, the stability of the complexes was studied via ^31P{^1H} NMR in DMSO and a DMSO/DMEM (Dulbecco’s modified Eagle’s medium) solution over 48 h. […] In the same way, stability assays were performed for the precursor cis-[RuCl2(bipy)(dppp)].

Row | Compound | IC50 (A549 (lung) cancer cells; MTT, 48 h treatment) [µM] | IC50 [1] [µM] | IC50 ([2]; MTT, 48 h treatment) [µM] | IC50 ([3]; MTT, 48 h treatment) [µM] | IC50 ([4]; MTT, 48 h treatment) [µM] | IC50 (A549 (lung) cancer cells; Homo sapiens, A549, 48 h) [µM] | IC50 ([2]; Homo sapiens, A2780cis, 48 h) [µM] | IC50 ([3]; Homo sapiens, A2780, 48 h) [µM] | IC50 ([4]; Homo sapiens, MDA-MB-231, 48 h) [µM] | other results
1 | Cc1c(Cl)cccc1Nc1ccccc1C1=[O+][Ru-4]23([O]1)([n+]1ccccc1-c1cccc[n+]12)[P+](c1ccccc1)(c1ccccc1)CCC[P+]3(c1ccccc1)c1ccccc1.F[P-](F)(F)(F)(F)F [complex 3, [Ru(TFen)(bipy)(dppp)]PF6] | 8.74 ± 0.23 | 3.58 ± 0.02 | 2.68 ± 0.26 | 2.25 ± 0.08 | 3.71 ± 0.15 |  |  |  |  | 
2 | F[P-](F)(F)(F)(F)F.c1ccc(Nc2ccccc2C2=[O+][Ru-4]34([O]2)([n+]2ccccc2-c2cccc[n+]23)[P+](c2ccccc2)(c2ccccc2)CCC[P+]4(c2ccccc2)c2ccccc2)cc1 [complex 1, [Ru(Fen)(bipy)(dppp)]PF6] | 3.96 ± 0.4 | 2.47 ± 0.18 | 0.96 ± 0.04 | 0.66 ± 0.04 | 2.87 ± 0.11 |  |  |  |  | concentration at which spheroid growth (diameter) was significantly compromised (A2780 tumor spheroids; 0.78–12.5 μM tested, monitored 144 h): 12.5 µM; PI fluorescence in spheroids (A2780 tumor spheroids; DAPI/PI double staining after 144 h): increase in the fluorescence intensity of the PI marker; Ru uptake percentage (A2780 cells): 3,6%; amount of ruthenium internalized by A2780 cells (A2780 cells): 20,8 ± 3,2 ng; DAPI and Green Plasma staining [5]: significant shortening of the plasma membrane, while the nucleus remained intact; propidium iodide fluorescence intensity [5]: significant increase in fluorescence intensity; cell morphology [5]: loss of adhesion and round cells are observed; effect on colony formation (A2780 cancer cells): significantly reduced both the number and size of colonies
3 | O=C(O)c1ccccc1Nc1ccccc1 [HFe, fenamic acid] |  |  |  |  |  | > 100 | > 100 | > 100 | > 100 | IC50 at 48 h [6]: > 100 µM
4 | Cc1cccc(Nc2ccccc2C2=[O+][Ru-4]34([O]2)([n+]2ccccc2-c2cccc[n+]23)[P+](c2ccccc2)(c2ccccc2)CCC[P+]4(c2ccccc2)c2ccccc2)c1C.F[P-](F)(F)(F)(F)F [complex 2, [Ru(MFen)(bipy)(dppp)]PF6] | 4.57 ± 0.08 | 2.33 ± 0.04 | 1.11 ± 0.06 | 0.91 ± 0.06 | 3.99 ± 0.21 |  |  |  |  | Ru uptake percentage (A2780 cells): 4,5%; amount of ruthenium internalized by A2780 cells (A2780 cells): 26,0 ± 1,9 ng; DAPI and Green Plasma staining [5]: significant shortening of the plasma membrane, while the nucleus remained intact; propidium iodide fluorescence intensity [5]: significant increase in fluorescence intensity; cell morphology [5]: loss of adhesion and round cells are observed; effect on colony formation (A2780 cancer cells): significantly reduced both the number and size of colonies
5 | Cc1cccc(Nc2ccccc2C(=O)O)c1C [HMFe, mefenamic acid] |  |  |  |  |  | > 100 | > 100 | > 100 | > 100 | IC50 at 48 h [6]: > 100 µM
6 | c1ccc(-c2ccccn2)nc1 [Bipy, 2,2′-bipyridine] |  |  |  |  |  | > 100 | > 100 | > 100 | > 100 | IC50 at 48 h ([6]; MRC-5 normal lung cells): > 100 µM
7 | c1ccc(P(CCCP(c2ccccc2)c2ccccc2)c2ccccc2)cc1 [Dppp, 1,3-bis(diphenylphosphino)propane] |  |  |  |  |  | > 100 | > 100 | > 100 | > 100 | IC50 at 48 h (in vitro): > 100 µM
8 | FC(F)(F)c1cccc(Nc2ccccc2C2=[O+][Ru-4]34([O]2)([n+]2ccccc2-c2cccc[n+]23)[P+](c2ccccc2)(c2ccccc2)CCC[P+]4(c2ccccc2)c2ccccc2)c1.F[P-](F)(F)(F)(F)F [complex 4, [Ru(FFen)(bipy)(dppp)]PF6] | 6.87 ± 0.35 | 4.36 ± 0.19 | 4.25 ± 0.11 | 2.14 ± 0.11 | 2.34 ± 0.14 |  |  |  |  | 
9 | Cc1c(Cl)cccc1Nc1ccccc1C(=O)O [HMTFe, tolfenamic acid] |  |  |  |  |  | > 100 | > 100 | > 100 | > 100 | IC50 at 48 h [6]: > 100 µM
10 | [Cl][Ru-4]12([Cl])([n+]3ccccc3-c3cccc[n+]31)[P+](c1ccccc1)(c1ccccc1)CCC[P+]2(c1ccccc1)c1ccccc1 [[RuCl2(bipy)(dppp)], cis-[RuCl2(bipy)(dppp)]] | > 50 | 40.9 ± 1.76 | 35.6 ± 1.7 | 28 ± 0.81 | 26.1 ± 4.84 |  |  |  |  | stability in DMSO (Stability by 31P{1H} NMR): new signals are observed at ∼40 ppm; stability in DMSO/DMEM solution (Stability by 31P{1H} NMR): two other doublets with chemical shifts at ∼33 and ∼46 ppm
11 | O=C(O)c1ccccc1Nc1cccc(C(F)(F)F)c1 [HMFFe, flufenamic acid] |  |  |  |  |  | > 100 | > 100 | > 100 | > 100 | IC50 at 48 h (in vitro): > 100 µM
